Experimental data as given in patent publication US20200017495A1, “NOVEL HETEROCYCLIC COMPOUNDS AND THEIR USE IN PREVENTING OR TREATING BACTERIAL INFECTIONS” (priority 2017, published 2020).

Experiments:
Assay type in all cases: cell-based
[1] = test system: Morganella morganii (MMO) isolates; experiment: MIC of compounds alone and combined with antibacterials, broth microdilution (CLSI); details: genotype DHA-1
Description: (§1) Method 2: MIC of Compounds Alone and Combined with Antibacterials Against Bacterial Isolates
(§2) Compounds of the present invention were assessed against genotyped bacterial strains (Table 3, 4) alone or in combination with an antibacterial (Table 2). […] Log phase bacterial suspensions were adjusted to a final density of 5.10^5 CFU/mL in cation-adjusted Mueller-Hinton broth (ca-MHB; Becton-Dickinson and Company) and added to each well (98 μL). Microplates were incubated for 16-20 h at 35° C. in ambient air. The MIC of the compounds was defined as the lowest concentration of said compounds that prevented bacterial growth as read by visual inspection. The MIC of ATB at each compound concentration was defined as the lowest concentration of ATB that prevented bacterial growth as read by visual inspection.

[2] = test system: Proteus mirabilis (PMI) isolates; experiment: microbe, parasite or virus in culture
Description: as §1, §2

[3] = test system: Providencia stuartii (PST) isolates; experiment: MIC of compounds alone and combined with antibacterials, broth microdilution (CLSI)
Description: as §1
(§3) Compounds of the present invention were assessed against genotyped bacterial strains (Table 3, 4) alone or in combination with an antibacterial (Table 2). […]. Briefly, compounds alone according to the invention were prepared in DMSO and spotted (2 μL each) on sterile polystyrene plates (Corning, 3788). Combinations of compounds and antibiotics dilutions were prepared in DMSO and spotted (1 μL each) on sterile polystyrene plates (Corning, 3788). Log phase bacterial suspensions were adjusted to a final density of 5.10^5 CFU/mL in cation-adjusted Mueller-Hinton broth (ca-MHB; Becton-Dickinson and Company) and added to each well (98 μL). Microplates were incubated for 16-20 h at 35° C. in ambient air. The MIC of the compounds was defined as the lowest concentration of said compounds that prevented bacterial growth as read by visual inspection. The MIC of ATB at each compound concentration was defined as the lowest concentration of ATB that prevented bacterial growth as read by visual inspection.

[4] = test system: Salmonella typhimurium (STY) isolates; experiment: as above; details: for MIC ATB in combination: STY S3371
Description: as §1, §3

CC(C)(O/N=C(\C(=O)N[C@@H]1C(=O)N2C(C(=O)[O-])=C(C[n+]3ccccc3)CS[C@H]12)c1csc(N)n1)C(=O)O [CAZ, Ceftazidime]
MIC ([1]; strain MMO UFR245): 8 µg/mL
MIC ([1]; strain MMO UFR246): 4 µg/mL
MIC ([1]; strain MMO UFR247): 0.5 µg/mL
MIC ATB in combination ([2]; PMI UFR82, AF2 @ 8 μg/mL): <0.25 µg/mL
MIC ATB in combination ([2]; PMI UFR82, AF3 @ 8 μg/mL): <0.25 µg/mL
MIC ATB in combination ([2]; PMI UFR126, AF2 @ 8 μg/mL): <0.25 µg/mL
MIC ATB in combination ([2]; PMI UFR126, AF3 @ 8 μg/mL): <0.25 µg/mL
MIC ATB in combination ([2]; PMI UFR127, AF2 @ 8 μg/mL): <0.25 µg/mL
MIC ATB in combination ([2]; PMI UFR127, AF3 @ 8 μg/mL): <0.25 µg/mL
MIC ATB in combination ([2]; PMI UFR128, AF2 @ 8 μg/mL): <0.25 µg/mL
MIC ATB in combination ([2]; PMI UFR128, AF3 @ 8 μg/mL): <0.25 µg/mL
MIC ATB in combination ([2]; PMI UFR129, AF2 @ 8 μg/mL): <0.25 µg/mL
MIC ATB in combination ([2]; PMI UFR129, AF3 @ 8 μg/mL): <0.25 µg/mL
MIC ATB in combination ([2]; PMI UFR130, AF2 @ 8 μg/mL): <0.25 µg/mL
MIC ATB in combination ([2]; PMI UFR130, AF3 @ 8 μg/mL): <0.25 µg/mL
MIC ATB in combination ([2]; PMI UFR133, AF2 @ 8 μg/mL): <0.25 µg/mL
MIC ATB in combination ([2]; PMI UFR133, AF3 @ 8 μg/mL): <0.25 µg/mL
MIC ATB in combination ([2]; PMI UFR237, AF2 @ 8 μg/mL): <0.25 µg/mL
MIC ATB in combination ([2]; PMI UFR237, AF3 @ 8 μg/mL): <0.25 µg/mL
MIC ([2]; strain PMI UFR82, genotype CMY-2): 4 µg/mL
MIC ([2]; strain PMI UFR120, genotype TEM-1, SHV-11, CTX-M-14): <=0.25 μg/mL
MIC ([2]; strain PMI UFR121, genotype TEM-1, TEM-52): 16 µg/mL
MIC ([2]; strain PMI UFR122, genotype TEM-1, CTX-M-15): 1 µg/mL
MIC ([2]; strain PMI UFR123, genotype CTX-M-1): 2 µg/mL
MIC ([2]; strain PMI UFR124, genotype CTX-M-2): 2 µg/mL
MIC ([2]; strain PMI UFR125, genotype CTX-M-71): 2 µg/mL
MIC ([2]; strain PMI UFR126, genotype TEM-2, PER-1): >128 µg/mL
MIC ([2]; strain PMI UFR127, genotype VEB-1): >128 µg/mL
MIC ([2]; strain PMI UFR128, genotype VEB-1, OXA-10): >128 µg/mL
MIC ([2]; strain PMI UFR129, genotype TEM-1, VEB-6): >128 µg/mL
MIC ([2]; strain PMI UFR130, genotype CMY-2): 4 µg/mL
MIC ([2]; strain PMI UFR131, genotype CMY-16, OXA-1, OXA-10, NDM-1, ArmA): >128 µg/mL
MIC ATB in combination ([2]; strain PMI UFR131, with AF2 @ 8 μg/mL): <0.25 µg/mL
MIC ATB in combination ([2]; strain PMI UFR131, with AF3 @ 8 μg/mL): <0.25 µg/mL
MIC ([2]; strain PMI UFR132, genotype VEB-6, DHA-1, NDM-1, AphA6, AacA4): >128 µg/mL
MIC ATB in combination ([2]; strain PMI UFR132, with AF2 @ 8 μg/mL): <0.25 µg/mL
MIC ATB in combination ([2]; strain PMI UFR132, with AF3 @ 8 μg/mL): <0.25 µg/mL
MIC ([2]; strain PMI UFR133, genotype OXA-23): <=0.25 μg/mL
MIC ([2]; strain PMI UFR237, genotype VEB-6): >128 µg/mL
MIC ATB in combination ([3]; PST UFR94, AF2 @ 8 μg/mL): <=0.25 μg/mL
MIC ATB in combination ([3]; PST UFR94, AF3 @ 8 μg/mL): <=0.25 μg/mL
MIC ATB in combination ([3]; PST UFR95, AF2 @ 8 μg/mL): <=0.25 μg/mL
MIC ATB in combination ([3]; PST UFR95, AF3 @ 8 μg/mL): <=0.25 μg/mL
MIC ATB in combination ([3]; PST UFR120, AF2 @ 8 μg/mL): <0.25 µg/mL
MIC ATB in combination ([3]; PST UFR120, AF3 @ 8 μg/mL): <0.25 µg/mL
MIC ATB in combination ([3]; PST UFR121, AF2 @ 8 μg/mL): <0.25 µg/mL
MIC ATB in combination ([3]; PST UFR121, AF3 @ 8 μg/mL): <0.25 µg/mL
MIC ATB in combination ([3]; PST UFR122, AF2 @ 8 μg/mL): <0.25 µg/mL
MIC ATB in combination ([3]; PST UFR122, AF3 @ 8 μg/mL): <0.25 µg/mL
MIC ATB in combination ([3]; PST UFR123, AF2 @ 8 μg/mL): <=0.25 μg/mL
MIC ATB in combination ([3]; PST UFR123, AF3 @ 8 μg/mL): <0.25 µg/mL
MIC ATB in combination ([3]; PST UFR124, AF2 @ 8 μg/mL): <=0.25 μg/mL
MIC ATB in combination ([3]; PST UFR124, AF3 @ 8 μg/mL): <0.25 µg/mL
MIC ATB in combination ([3]; PST UFR125, AF2 @ 8 μg/mL): <=0.25 μg/mL
MIC ATB in combination ([3]; PST UFR125, AF3 @ 8 μg/mL): <0.25 µg/mL
MIC ATB in combination ([3]; PST UFR235, AF2 @ 8 μg/mL): <=0.25 μg/mL
MIC ATB in combination ([3]; PST UFR235, AF3 @ 8 μg/mL): <=0.25 μg/mL
MIC ([3]; strain PST UFR94, genotype CTX-M-14): 1 µg/mL
MIC ([3]; strain PST UFR95, genotype TEM-24): 64 µg/mL
MIC ([3]; strain PST UFR98, genotype TEM-1, CMY-6, OXA-1, NDM-1, RmtC): >256 µg/mL
MIC ATB in combination ([3]; strain PST UFR98, with AF2 @ 8 μg/mL): >128 µg/mL
MIC ATB in combination ([3]; strain PST UFR98, with AF3 @ 8 μg/mL): <0.25 µg/mL
MIC ([3]; strain PST UFR235, genotype VEB-1): >128 µg/mL
MIC ATB in combination ([4]; AF2 @ 8 μg/mL): <0.25 µg/mL
MIC ATB in combination ([4]; AF3 @ 8 μg/mL): <0.25 µg/mL
MIC ([4]; strain STY S3371, genotype OXA-1): 0.5 µg/mL
